Measurements: US20170166561A1, “QUINUCLIDINE COMPOUNDS FOR MODULATING ALPHA7-NICOTINIC ACETYLCHOLINE RECEPTOR ACTIVITY” (Alpharmagen, LLC, priority 2014, published 2017)
Structures can show the parent of a compound that is named as a salt.

assay: Human plasma stability (Protocols 1 and 2); type: in vitro ADME; conditions: Protocol 1; human plasma pH 7.4, 1 μM, 37° C., 2 h
Method: Example B6: Human Plasma Stability
Studies were carried out in human plasma. All plasma was obtained from Bioreclamation and collected on sodium heparin. Plasma was adjusted to pH 7.4. A DMSO stock was first prepared for the test compound. An aliquot of the DMSO solution was dosed into 1 mL of plasma, which had been pre-warmed to 37° C., at a final test compound concentration of 1 μM. The vials were kept in a benchtop Thermomixer® for the duration of the experiment. Aliquots (100 μL) were taken at each time point (0, 15, 30, 60, and 120 minutes) and added to 96-well plates which had been pre-filled with 300 μL of acetonitrile. Samples were stored at 4° C. until the end of the experiment. After the final time point was sampled, the plate was mixed and then centrifuged at 3,000 rpm for 10 minutes. Aliquots of the supernatant were removed, diluted 1:1 into distilled water, and analyzed by LC-MS/MS. The peak area response ratio to internal standard (PARR) of the compound at 15, 30, 60 and 120 minutes was compared to the PARR at time 0 to determine the percent of test compound remaining at each time point. Half-lives were calculated using GraphPad software, fitting to a single-phase exponential decay equation.
Studies were carried out in plasma. Plasma was prepared under approval of IRB and IACUC on sodium heparin. The pH of plasma was monitored and used within the range of pH 7.4 to pH 8.0. DMSO stocks were prepared for the test compounds. Aliquots of the DMSO solutions were diluted to 0.05 mM by 0.05 mM Sodium phosphate buffer with 0.5% BSA. Then 10 μL of 0.05 mM solutions were dosed into 90 μL of plasma in duplicates (n=2), which had been pre-warmed to 37° C., at a final test compound concentration of 5 μM. The plates were kept in a 37° C. water bath for the duration of the experiment. At each time point (0, 5, 15, 30, 45, 60, and 120 minutes), 400 μL of acetonitrile was added into corresponding wells. After the final time point was sampled, the plates were shaken at the vibrator (IKA, MTS 2/4) for 10 min (600 rpm/min) and then centrifuged at 5594 g for 15 min (Thermo Multifuge×3R). Aliquots of the supernatant were removed, diluted 1:1 into distilled water, and analyzed by LC-MS/MS. The peak area response ratio to internal standard (PARR) of the compounds at 5, 15, 30, 45, 60, and 120 minutes was compared to the PARR at time 0 to determine the percent of test compound remaining at each time point. Half-lives were calculated using Excel software, fitting to a single-phase exponential decay equation.

Row | Compound | % Remaining @ 2 h
1 | Cl.O=C(OCC12CCN(CC1)CC2)c1c[nH]c2cc3c(cc12)OCCO3 [Compound 30, Quinuclidin-4-ylmethyl 2,3-dihydro-6H-[1,4]dioxino[2,3-f]indole-8-carboxylate hydrochloride] | 10%

same assay, conditions: human, plasma, 2 h, 1 μM, pH 7.4

Row | Compound | % Remaining @ 2 h
2 | O=C(OCC12CCN(CC1)CC2)c1c[nH]c2ccccc12 [Compound 1, quinuclidin-4-ylmethyl 1H-indole-3-carboxylate] | 11%
3 | O=C(OCC12CCN(CC1)CC2)c1c[nH]c2ccc(F)cc12 [Compound 12, quinuclidin-4-ylmethyl 5-fluoro-1H-indole-3-carboxylate] | 31%
4 | O=C(OCC12CCN(CC1)CC2)c1c[nH]c2cc(O)ccc12 [Compound 14, quinuclidin-4-ylmethyl 6-hydroxy-1H-indole-3-carboxylate] | 26%
5 | COc1ccc2[nH]cc(C(=O)OCC34CCN(CC3)CC4)c2c1 [Compound 18, quinuclidin-4-ylmethyl 5-methoxy-1H-indole-3-carboxylate] | 5.8%
6 | Cc1ccc2[nH]cc(C(=O)OCC34CCN(CC3)CC4)c2c1 [Compound 20, quinuclidin-4-ylmethyl 5-methyl-1H-indole-3-carboxylate] | 14%
7 | Cc1cccc2[nH]cc(C(=O)OCC34CCN(CC3)CC4)c12 [Compound 21, quinuclidin-4-ylmethyl 4-methyl-1H-indole-3-carboxylate] | 83%
8 | O=C(OCC12CCN(CC1)CC2)c1c[nH]c2cc(Br)ccc12 [Compound 22, quinuclidin-4-ylmethyl 6-bromo-1H-indole-3-carboxylate] | 58%
9 | O=C(OCC12CCN(CC1)CC2)c1c[nH]c2ccc(Br)cc12 [Compound 23, quinuclidin-4-ylmethyl 5-bromo-1H-indole-3-carboxylate] | 21%
10 | O=C(OCC12CCN(CC1)CC2)c1c[nH]c2cccc(Br)c12 [Compound 24, quinuclidin-4-ylmethyl 4-bromo-1H-indole-3-carboxylate] | 89%
11 | O=C(OCC12CCN(CC1)CC2)c1c[nH]c2cc(Cl)ccc12 [Compound 26, quinuclidin-4-ylmethyl 6-chloro-1H-indole-3-carboxylate] | 65%
12 | N#Cc1ccc2c(C(=O)OCC34CCN(CC3)CC4)c[nH]c2c1 [Compound 28, quinuclidin-4-ylmethyl 6-cyano-1H-indole-3-carboxylate] | 79%
13 | COc1ccc2[nH]cc(C(=O)OCC34CCN(CC3)CC4)c2c1C [Compound 34, quinuclidin-4-ylmethyl 5-methoxy-4-methyl-1H-indole-3-carboxylate] | 55%
14 | O=C(OCC12CCN(CC1)CC2)c1c[nH]c2cccc(Cl)c12 [Compound 35, quinuclidin-4-ylmethyl 4-chloro-1H-indole-3-carboxylate] | 56%
15 | COc1cccc2[nH]cc(C(=O)OCC34CCN(CC3)CC4)c12 [Compound 36, quinuclidin-4-ylmethyl 4-methoxy-1H-indole-3-carboxylate] | 2.5%

same assay, conditions: human, plasma, pH 7.4

Row | Compound | T1/2 | half-life at 5 μM
16 | COc1cc(C)c2c(C(=O)OCC34CCN(CC3)CC4)c[nH]c2c1 [Compound 37, quinuclidin-4-ylmethyl 6-methoxy-4-methyl-1H-indole-3-carboxylate] | ∞ | –
17 | COc1cc(Cl)c2c(C(=O)OCC34CCN(CC3)CC4)c[nH]c2c1 [Compound 38, quinuclidin-4-ylmethyl 4-chloro-6-methoxy-1H-indole-3-carboxylate] | ∞ | –
18 | COc1ccc2[nH]cc(C(=O)OCC34CCN(CC3)CC4)c2c1Cl [Compound 39, quinuclidin-4-ylmethyl 4-chloro-5-methoxy-1H-indole-3-carboxylate] | – | 0.711 h
19 | COc1ccc2[nH]cc(C(=O)OCC34CCN(CC3)CC4)c2c1OC [Compound 40, quinuclidin-4-ylmethyl 4,5-dimethoxy-1H-indole-3-carboxylate] | ∞ | –
20 | O=C(OCC12CCN(CC1)CC2)c1c[nH]c2cc(F)cc(Br)c12 [Compound 41, quinuclidin-4-ylmethyl 4-bromo-6-fluoro-1H-indole-3-carboxylate] | ∞ | –
21 | O=C(OCC12CCN(CC1)CC2)c1c[nH]c2cc(Cl)cc(Br)c12 [Compound 42, quinuclidin-4-ylmethyl 4-bromo-6-chloro-1H-indole-3-carboxylate] | – | 2.87 h
22 | Cc1c(F)ccc2[nH]cc(C(=O)OCC34CCN(CC3)CC4)c12 [Compound 43, quinuclidin-4-ylmethyl 5-fluoro-4-methyl-1H-indole-3-carboxylate] | ∞ | –
23 | O=C(OCC12CCN(CC1)CC2)c1c[nH]c2cc(O)cc(Cl)c12 [Compound 46, quinuclidin-4-ylmethyl 4-chloro-6-hydroxy-1H-indole-3-carboxylate] | – | 14.3 h
24 | COc1ccc2[nH]cc(C(=O)OCC34CCN(CC3)CC4)c2c1Br [Compound 47, quinuclidin-4-ylmethyl 4-bromo-5-methoxy-1H-indole-3-carboxylate] | – | 4.34 h
25 | COc1cc(Br)c2c(C(=O)OCC34CCN(CC3)CC4)c[nH]c2c1 [Compound 48, quinuclidin-4-ylmethyl 4-bromo-6-methoxy-1H-indole-3-carboxylate] | – | 982 h
26 | Cc1cc(Br)c2c(C(=O)OCC34CCN(CC3)CC4)c[nH]c2c1 [Compound 49, quinuclidin-4-ylmethyl 4-bromo-6-methyl-1H-indole-3-carboxylate] | – | 13.8 h
27 | Cc1cc(Cl)cc2[nH]cc(C(=O)OCC34CCN(CC3)CC4)c12 [Compound 50, quinuclidin-4-ylmethyl 6-chloro-4-methyl-1H-indole-3-carboxylate] | ∞ | –
28 | Cc1cc(C)c2c(C(=O)OCC34CCN(CC3)CC4)c[nH]c2c1 [Compound 54, quinuclidin-4-ylmethyl 4,6-dimethyl-1H-indole-3-carboxylate] | – | 11.2 h
29 | Cc1cc2c(C(=O)OCC34CCN(CC3)CC4)c[nH]c2cc1O [Compound 55, quinuclidin-4-ylmethyl 6-hydroxy-5-methyl-1H-indole-3-carboxylate] | – | 1.54 h
30 | COc1cc2[nH]cc(C(=O)OCC34CCN(CC3)CC4)c2cc1C [Compound 56, quinuclidin-4-ylmethyl 6-methoxy-5-methyl-1H-indole-3-carboxylate] | – | 5.72 h
31 | Cc1cc(C#N)cc2[nH]cc(C(=O)OCC34CCN(CC3)CC4)c12 [Compound 60, quinuclidin-4-ylmethyl 6-cyano-4-methyl-1H-indole-3-carboxylate] | – | 22.9 h
32 | O=C(OCC12CCN(CC1)CC2)c1c[nH]c2cccc(C3CC3)c12 [Compound 61, Quinuclidin-4-ylmethyl 4-cyclopropyl-1H-indole-3-carboxylate] | – | 14 h
33 | O=C(OCC12CCN(CC1)CC2)c1c[nH]c2ccc(F)c(Cl)c12 [Compound 62, quinuclidin-4-ylmethyl 4-chloro-5-fluoro-1H-indole-3-carboxylate hydrochloride] | – | 5.91 h
34 | Cc1ccc2[nH]cc(C(=O)OCC34CCN(CC3)CC4)c2c1Cl [Compound 63, quinuclidin-4-ylmethyl 4-chloro-5-methyl-1H-indole-3-carboxylate] | – | 7.05 h

same assay, conditions: human; Protocol 2; plasma pH 7.4 to 8.0, 5 μM, 37° C.; read-out: T1/2

Row | Compound | half-life at 5 μM
35 | Cc1ccc2c(C(=O)OCC34CCN(CC3)CC4)c[nH]c2c1.Cl [Compound 45, Quinuclidin-4-ylmethyl 6-methyl-1H-indole-3-carboxylate hydrochloride] | 1.93 h
36 | Cl.O=C(OCC12CCN(CC1)CC2)c1c[nH]c2cc(F)c(F)cc12 [Compound 51, Quinuclidin-4-ylmethyl 5,6-difluoro-1H-indole-3-carboxylate hydrochloride] | 5.89 h
37 | Cl.O=C(OCC12CCN(CC1)CC2)c1c[nH]c2cc(Cl)c(F)cc12 [Compound 52, Quinuclidin-4-ylmethyl 6-chloro-5-fluoro-1H-indole-3-carboxylate hydrochloride] | 8.88 h
38 | O=C(OCC12CCN(CC1)CC2)c1c[nH]c2cc(O)cc(Br)c12 [Compound 53, quinuclidin-4-ylmethyl 4-bromo-6-hydroxy-1H-indole-3-carboxylate] | 31.1 h
39 | Cl.O=C(OCC12CCN(CC1)CC2)c1c[nH]c2cc(F)cc(Cl)c12 [Compound 64, quinuclidin-4-ylmethyl 4-chloro-6-fluoro-1H-indole-3-carboxylate hydrochloride] | 12.1 h
